Data on ten compounds can be found in ChEMBL document CHEMBL1144202, “Triazole oxytocin antagonists: identification of aryl ether replacements for a biaryl substituent” (Bioorg Med Chem Lett, 2008).

What is called Ki is the equilibrium dissociation constant of an inhibitor or competing ligand from its target. Read a high Ki as lower affinity. A word on the solubility: it is how much of the substance goes into solution per volume. Low readings indicate little dissolved substance, high ones much dissolved substance. As a reminder, the microsomal CLint is a measure of how fast metabolising enzymes remove a compound, apart from limits set by blood flow. Higher therefore signals rapid turnover.

The target in one series is Vasopressin V1a receptor (Homo sapiens, UniProt P37288). As to the kind of experiment: Antagonist activity at human vasopressin V1a receptor by cell based beta-lactamase reporter gene assay. The format is functional. A general note: In a reporter assay the amount or activity of a reporter protein is the signal.
Sequence of Vasopressin V1a receptor (P37288 whole entry): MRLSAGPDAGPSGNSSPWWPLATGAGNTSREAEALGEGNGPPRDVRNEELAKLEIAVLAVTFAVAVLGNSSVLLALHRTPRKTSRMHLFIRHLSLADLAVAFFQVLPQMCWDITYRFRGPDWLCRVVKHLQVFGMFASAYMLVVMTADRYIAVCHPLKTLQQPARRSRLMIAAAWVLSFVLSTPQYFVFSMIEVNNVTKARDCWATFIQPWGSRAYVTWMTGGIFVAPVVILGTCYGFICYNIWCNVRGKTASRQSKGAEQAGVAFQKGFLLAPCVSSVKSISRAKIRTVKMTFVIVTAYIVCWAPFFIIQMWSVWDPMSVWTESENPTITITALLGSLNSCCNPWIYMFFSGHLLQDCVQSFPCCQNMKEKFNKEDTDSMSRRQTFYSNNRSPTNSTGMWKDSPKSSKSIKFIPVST
The next series deals with T1, Oxytocin receptor (Homo sapiens, UniProt P30559).
T1 sequence (P30559 whole entry): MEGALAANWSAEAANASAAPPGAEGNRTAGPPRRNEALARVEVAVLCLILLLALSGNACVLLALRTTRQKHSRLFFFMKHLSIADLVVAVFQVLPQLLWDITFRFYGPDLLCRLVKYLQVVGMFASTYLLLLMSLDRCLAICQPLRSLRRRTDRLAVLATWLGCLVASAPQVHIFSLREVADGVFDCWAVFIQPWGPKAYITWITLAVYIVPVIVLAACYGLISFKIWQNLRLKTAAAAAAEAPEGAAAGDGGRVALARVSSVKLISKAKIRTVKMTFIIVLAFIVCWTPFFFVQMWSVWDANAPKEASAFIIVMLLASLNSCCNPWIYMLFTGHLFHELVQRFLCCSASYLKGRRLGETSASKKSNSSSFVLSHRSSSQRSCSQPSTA
The series is described as follows: Antagonist activity at human oxytocin receptor by cell based beta-lactamase reporter gene assay. It is filed as functional.

For series [1], the target named is T2, Vasopressin V1b receptor (Homo sapiens) (UniProt P47901).
T2 sequence (whole entry): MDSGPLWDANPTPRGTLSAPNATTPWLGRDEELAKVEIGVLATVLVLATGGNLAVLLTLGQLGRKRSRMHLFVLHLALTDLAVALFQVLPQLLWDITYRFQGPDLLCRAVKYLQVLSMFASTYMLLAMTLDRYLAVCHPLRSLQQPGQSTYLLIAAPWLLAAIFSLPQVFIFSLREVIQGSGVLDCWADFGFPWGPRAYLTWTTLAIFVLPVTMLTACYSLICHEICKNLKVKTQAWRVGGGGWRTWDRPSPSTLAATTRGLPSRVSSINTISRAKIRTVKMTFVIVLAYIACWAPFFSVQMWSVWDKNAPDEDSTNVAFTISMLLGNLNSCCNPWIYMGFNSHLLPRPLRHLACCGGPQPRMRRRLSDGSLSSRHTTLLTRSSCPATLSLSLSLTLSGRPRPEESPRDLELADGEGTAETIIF
As to the kind of experiment: Binding affinity to human vasopressin V1b receptor at 10 uM relative to control.

A further series addresses Vasopressin V2 receptor (Homo sapiens, UniProt P30518). As to the kind of experiment: Antagonist activity at human vasopressin V2 receptor by cell based beta-lactamase reporter gene assay. The format is functional.
The nature of series [2]: Aqueous solubility at pH 7.4. It is filed as physicochemical.
Series [3] can be described thus: Intrinsic clearance in human liver microsomes. It is filed as ADME, Microsome. On the technique in general: Microsomes from liver hold many membrane-bound enzymes, among them those of drug oxidation.
A further series deals with T3, Vasopressin V1b receptor (Homo sapiens, UniProt P47901).
T3 sequence (P47901 whole entry): T2 sequence (whole entry)
As to the kind of experiment: Antagonist activity at human vasopressin V1b receptor by cell based beta-lactamase reporter gene assay. The format is functional.

Values after ≈ are worked out from the molar mass of the structure shown.

Sequence of Vasopressin V2 receptor (P30518 whole entry): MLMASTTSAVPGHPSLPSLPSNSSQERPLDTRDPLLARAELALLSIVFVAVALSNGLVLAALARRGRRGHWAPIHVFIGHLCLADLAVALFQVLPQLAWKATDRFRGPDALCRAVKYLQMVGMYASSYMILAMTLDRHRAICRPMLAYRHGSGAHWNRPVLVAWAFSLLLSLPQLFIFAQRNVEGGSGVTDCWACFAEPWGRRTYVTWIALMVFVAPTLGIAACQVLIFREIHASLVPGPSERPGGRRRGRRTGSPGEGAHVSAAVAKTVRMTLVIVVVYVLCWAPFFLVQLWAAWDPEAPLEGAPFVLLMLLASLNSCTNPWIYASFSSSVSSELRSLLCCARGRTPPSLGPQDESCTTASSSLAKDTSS

With `CCOc1ccc(-c2nnc(COC)n2-c2ccc(OC)nc2)cc1C(F)(F)F`, the Ki at Vasopressin V1a receptor is above 10 µM; on Oxytocin receptor it was 0.19 µM; at Vasopressin V2 receptor, above 10 µM. In addition, the Activity in series [1] was below 20%.
In the case of `CCOc1ccc(-c2nnc(Cn3nccn3)n2-c2ccc(OC)nc2)cc1C`, the results for the Ki at Vasopressin V1a receptor, at Oxytocin receptor and at Vasopressin V2 receptor were 0.214 µM, 0.045 µM and 1 µM, respectively. The same compound showed an Activity in series [1] below 20%.
In series [2], `CCOc1ccc(-c2nnc(COC)n2-c2ccc(OC)nc2)cc1C` showed a solubility of 0.17 mg/mL (≈ 480 µM). In addition, the values for the Ki at Vasopressin V1a receptor, at Oxytocin receptor and on Vasopressin V2 receptor were 3.8 µM, 0.102 µM and above 10 µM, respectively. The Activity in series [1] is below 20%.
On to `COc1ccc(-n2c(C)nnc2-c2cnc(-c3ccc(F)cc3C)cn2)cn1`, for which the Activity in series [1] was below 20%.
With `CCOc1ccc(S(=O)(=O)N(CC(=O)N/N=C2\C(=O)Nc3ccccc32)c2ccccc2)cc1`, the inhibition constant (Ki) at Oxytocin receptor is 0.006 µM. The compound further gave an Activity in series [1] below 20%.
In series [1], `COCc1nnc(-c2cnc(-c3ccc(C#N)cc3C)cn2)n1-c1ccc(OC)nc1` had an Activity below 20%.
`CCOCc1nnc(-c2ccc(OCC)c(C)c2)n1-c1ccc(OC)nc1` registered a solubility in series [2] of 0.344 mg/mL (≈ 934 µM). The Ki on Vasopressin V1a receptor was 0.594 µM; on Oxytocin receptor, 0.028 µM; on Vasopressin V1b receptor, above 10 µM; on Vasopressin V2 receptor, above 10 µM. This compound showed a microsomal CLint in series [3] of 12 µL/min/mg. This compound had an Activity in series [1] below 20%.
For `CCOc1ccc(-c2nnc(COCCOC)n2-c2ccc(OC)nc2)cc1C`, the Ki was 1.7 µM on Vasopressin V1a receptor, 0.019 µM on Oxytocin receptor and 6.4 µM at Vasopressin V2 receptor. This compound returned an Activity in series [1] below 20%.
Taken in the same sequence, the figures for `CCOc1ccc(-c2nnc(C)n2-c2ccc(OC)nc2)cc1C` were above 10 µM, 0.143 µM, above 10 µM and below 20%.
On the same counts, the results for `CCOc1ccc(-c2nnc(COC)n2-c2ccc(OC)nc2)cc1Cl` are 2.9 µM, 0.144 µM, above 10 µM and below 20%.
